Assay results as given in patent publication US20180051284A1, “INHIBITORS OF MIR-17-92 CLUSTER FOR ANTI-TUMOR ACTIVITY IN MULTIPLE MYELOMA AND OTHER MALIGNANCIES” (priority 2014, published 2018).
l = locked nucleic acid (LNA); d = 2'-deoxy (DNA)

Legend:
[1] = system: AMO1/abzb xenografts; experiment: In vivo tumor growth of Bortezomib-refractory AMO1/abzb xenografts (IVIS); design: species or system mice; conditions: I.P. Bortezomib 1 mg/kg; Bortezomib-refractory model
Description: Male CB-17 severe combined immunodeficient (SCID) mice (6- to 8-weeks old; Harlan Laboratories, Inc., Indianapolis) were housed and monitored in our Animal Research Facility. All experimental procedures and protocols had been approved by the Institutional Ethical Committee (Magna Graecia University) and conducted according to protocols approved by the National Directorate of Veterinary Services (Italy). In accordance with institutional guidelines, mice were sacrificed when tumors reached 2 cm in diameter or in the event of paralysis or major compromise, to prevent unnecessary suffering. Animal experimental procedures have been performed as in previous reports (Di Martino et al, CCR 2012; Di Martino el al. Oncotarget 2013, Di Martino et al PlosOne 2014). […] Mice were also inoculated with 5×10^6 luciferase gene-marked U266, AMO-1, AMO-1/abzb, treatments were performed intraperitoneally (i.p.), and tumor volume were measured by IVIS Lumina II.
In vivo anti-MM activity of LNA gapmer_06 was next evaluated in NOD/SCID mice bearing subcutaneous AMO1 xenografts. […] Tumors volume were measured using IVIS LUMINA II Imaging We next evaluate the in vivo activity in Bortezomib-refractory model of human MM. […] Tumors volume were measured using IVIS LUMINA II Imaging System.

[2] = system: miR-17-92 primary transcript (pri-miRs) and mature miR-17-92 cluster members; experiment: q-RT-PCR of miR-17-92 member family and two pri-miRs after transfection of MM cells; type: cell-based, Human; conditions: 48 hours after transfection with 25 nM; NCI-H929 and RPMI-8226 cells; relative to RNase-free water
Experimental: 3×10^5 cells were transfected using Neon Transfection System (Invitrogen, Calif.,U.S.), (2 pulses at 1150, 30ms). The transfection efficiency evaluated by flow-cytometric analysis relative to a FAM dye—labeled anti-miR—negative control reached 85% to 90%.
Reverse transcription (RT) of both primary and mature miRNAs was performed using TaqMan® MicroRNA Assays, following a procedure for multiplexing the RT step (Life Technologies, Publication Part Number 4465407). Briefly, 500 ng of total RNA, prepared with the TRIzol® Reagent (Invitrogen), underwent reverse transcription by the Taq-Man® MicroRNA RT Kit. In this reaction, the RT primer pool was composed by the individual RT primers for each microRNA belonging to the miR-17-92 cluster and two RT primers to allow the reverse transcription of the miR-17-92 primary miRNA. Real-time PCR was performed using TaqMan® MicroRNA Assays together with the TaqMan® Universal PCR Master Mix on an ViiA7 System (Life Technologies). Both primary and mature microRNAs expressions were relatively quantified using the 2-ΔΔCt method (Applied Biosystems User Bulletin No. 2), and expressed as the relative quantity of target miRNA normalized to the RNU44 (assay ID 001094) housekeeping gene. Comparative real-time polymerase chain reaction (RT-PCR) was performed in triplicate, including no-template controls. Relative expression was calculated using the comparative cross threshold (Ct) method.
By the use of a custom q-RT-PCR plate specifically designed by us to detect all six mature miR-17-92 members and the primary transcript by two different assays (pri-mir-17/18a/19a and pri-mir-19b1/20a/92a1), we quantified in a panel of 11 MM cell lines the levels of the different miRNAs and pri-miRs.

Compound | tumor growth (IVIS tumor volume) [1] | downregulation of primary and mature miRNA sequences (q-RT-PCR) [2]
CC(C)C[C@H](NC(=O)[C@H](Cc1ccccc1)NC(=O)c1cnccn1)B(O)O [Bortezomib, reference compound] | no effect on tumor-growth | –
gapmer_15: LNA/DNA gapmer, SEQ ID 7 (16 mer): +A*+G*+C*A*C*T*C*A*A*C*A*T*C*+A*+G*+C (AGCACTCAACATCAGC; sugars from the 5' end l3 d10 l3, all phosphorothioate, methylation of C not given here) | – | strongest downregulation of primary transcripts and miR-17-92 mature members
